This passage reports TGI and GI50 results from PubChem BioAssay (NCI).

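48-hour exposure; five concentrations; linearly interpolated endpoints. Here, GI50 denotes the concentration required for 50% inhibition of growth. TGI denotes the concentration required for complete inhibition of growth.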

The first assay deals with SF-295 CNS. As to the kind of experiment: growth of human tumour cells (NCI), 48 h.
`O=C(N/C(=C\c1ccc(/C=C(\NC(=O)c2ccccc2)c2nc3cc([N+](=O)[O-])ccc3[nH]2)cc1)c1nc2cc([N+](=O)[O-])ccc2[nH]1)c1ccccc1` displayed a TGI of over 100 µM.

For the compound `COc1cc2c(cc1OC)-c1c3cc(O)ccc3nn[n+]1CC2`, the TGI was over 100 µM.

In the case of `Cc1ccc(NC2=C(Cl)C(=O)N(Cc3ccccc3)C2=O)cc1O`, the GI50 was 22 µM and the TGI was determined as 81.8 µM.

The compound `CCN(CCO)CC1CCCC2CCCCC21` (stereo not drawn) returned a TGI of over 100 µM.

`N#CC(c1ccc(Cl)cc1)c1cccc(C(C#N)c2ccc(Cl)cc2)n1` (stereo not drawn) had a TGI of over 100 µM.

Regarding `CCCCOC(=O)C1OC(O[C@H]2CCC3(C)C(CCC4(C)C3CC=C3C5CC(C)(C)CCC5(C(=O)O)CC[C@]34C)C2(C)C)C(OC2OC(CO)C(O)C(O)C2O)C(OC2OC(CO)C(O)C(O)C2O)C1O` (stereo partly drawn), the GI50 was 26 µM and the TGI came to 71 µM.

Consider `COc1cc(Cc2cnc(/N=C3\C(=O)N(CN4CCN(c5c(F)cc6c(=O)c(C(=O)O)cn(C7CC7)c6c5OC)CC4C)c4ccc(F)cc43)nc2N)cc(OC)c1OC` (stereo not drawn), for which the GI50 was 14.4 µM and the TGI was 30.2 µM.

Compound `N#CC1C(C#N)C2(c3ccccc3)C(c3ccccc3)=NN(c3ccccc3)CC12` (stereo not drawn) showed a TGI of over 100 µM.

`NC(=O)c1sc(-n2cnc3ccccc32)cc1OCc1ccccc1Br`: the GI50 was 3.9 µM and the TGI was over 25 µM.

With `CN(C)C(=N)c1ccccc1`, the TGI is over 100 µM.

The compound `Cc1cc(C)nc(NS(=O)(=O)c2ccc(NC(=O)c3ccc(Cl)c4c(Nc5ccc(S(=O)(=O)Nc6nc(C)cc(C)n6)cc5)c5ccccc5nc34)cc2)n1` showed a TGI of over 100 µM.

Regarding `CCCCCN(CCCCC)CCCNc1c2c(nc3ccc(Cl)cc13)CCCC2`, the GI50 was 1.18 µM and the TGI is 3.05 µM.

The next assay relates to SK-MEL-28 melanoma. As to the kind of experiment: growth of human tumour cells (NCI), 48 h.
As for `CC1(C)CCc2c(c3c(c4c(=O)c(O)c(-c5ccc(O)cc5)oc24)OC(C)(C)CC3)O1`, the GI50 was over 100 µM and the TGI was over 100 µM.

`CC(C)=CC(=O)C1c2cccc(O)c2C(=O)c2c(O)cc(C)cc21` (stereo not drawn) gave a TGI of 9.04 µM.

Regarding `O=C(O)CCc1coc2ccc(O)cc12`, the TGI is over 100 µM.

Turning to `O=C(Nc1ccccc1)NS(=O)(=O)c1ccc(-n2nc3c(c2-c2cccs2)Cc2ccccc2-3)cc1`, the GI50 was 50.2 µM and the TGI is over 100 µM.

Take `CCCCCN(CCCCC)CC(O)c1cc(C)c2ccc3cc(C(C)C)ccc3c2c1` (stereo not drawn): the GI50 was 1.76 µM and the TGI came out at 3.27 µM.

Regarding `COC(=O)CC1CCN(C#N)CC1CC[N+](=O)[O-]` (stereo not drawn), the TGI is over 100 µM.

As for `COc1ccc(-c2nc3sccn3c2/C(N)=N/C(=N)N)cc1OC`, the GI50 was 32.5 µM and the TGI was over 100 µM.

The compound `O=C(N/C(=C\c1ccc(/C=C(\NC(=O)c2ccccc2)c2nc3cc([N+](=O)[O-])ccc3[nH]2)cc1)c1nc2cc([N+](=O)[O-])ccc2[nH]1)c1ccccc1` had a TGI of 69.8 µM.

Take `COc1cc2c(cc1OC)-c1c3cc(O)ccc3nn[n+]1CC2`: the TGI was over 100 µM.

Regarding `Cc1ccc(NC2=C(Cl)C(=O)N(Cc3ccccc3)C2=O)cc1O`, the GI50 was 52.8 µM and the TGI is over 100 µM.

`CCN(CCO)CC1CCCC2CCCCC21` (stereo not drawn): the TGI is over 100 µM.

Consider `N#CC(c1ccc(Cl)cc1)c1cccc(C(C#N)c2ccc(Cl)cc2)n1` (stereo not drawn), for which the TGI is over 100 µM.

`CCCCOC(=O)C1OC(O[C@H]2CCC3(C)C(CCC4(C)C3CC=C3C5CC(C)(C)CCC5(C(=O)O)CC[C@]34C)C2(C)C)C(OC2OC(CO)C(O)C(O)C2O)C(OC2OC(CO)C(O)C(O)C2O)C1O` (stereo partly drawn): the GI50 was 26.7 µM and the TGI worked out at 52.2 µM.

In turn, `N#CC1C(C#N)C2(c3ccccc3)C(c3ccccc3)=NN(c3ccccc3)CC12` (stereo not drawn) came in with a TGI of over 100 µM.

As for `NC(=O)c1sc(-n2cnc3ccccc32)cc1OCc1ccccc1Br`, the GI50 is over 25 µM and the TGI was over 25 µM.

The compound `CN(C)C(=N)c1ccccc1` showed a TGI of over 100 µM.

As to `C#Cc1ccc(-n2c(/C=C/c3ccc(C(F)(F)F)cc3)nc3ncccc3c2=O)cc1`, the GI50 is 1.78 µM and the TGI was 3.26 µM.

`Cc1cc(C)nc(NS(=O)(=O)c2ccc(NC(=O)c3ccc(Cl)c4c(Nc5ccc(S(=O)(=O)Nc6nc(C)cc(C)n6)cc5)c5ccccc5nc34)cc2)n1` gave a TGI of over 100 µM.

Turning to `CCCCCN(CCCCC)CCCNc1c2c(nc3ccc(Cl)cc13)CCCC2`, the GI50 was 3.74 µM and the TGI turned out to be 13.8 µM.

In another assay the test system is SK-MEL-5 melanoma. Put plainly: growth of human tumour cells (NCI), 48 h.
`CC1(C)CCc2c(c3c(c4c(=O)c(O)c(-c5ccc(O)cc5)oc24)OC(C)(C)CC3)O1`: the GI50 was over 100 µM and the TGI was over 100 µM.

As for `CC(C)=CC(=O)C1c2cccc(O)c2C(=O)c2c(O)cc(C)cc21` (stereo not drawn), the TGI worked out at 4.06 µM.

The compound `O=C(O)CCc1coc2ccc(O)cc12` registered a TGI of over 100 µM.

Regarding `O=C(Nc1ccccc1)NS(=O)(=O)c1ccc(-n2nc3c(c2-c2cccs2)Cc2ccccc2-3)cc1`, the GI50 is 15.6 µM and the TGI amounted to 31.5 µM.

For the compound `CCCCCN(CCCCC)CC(O)c1cc(C)c2ccc3cc(C(C)C)ccc3c2c1` (stereo not drawn), the GI50 was 1.83 µM and the TGI was 3.62 µM.

In turn, `COC(=O)CC1CCN(C#N)CC1CC[N+](=O)[O-]` (stereo not drawn) gave a TGI of over 100 µM.

As to `COc1ccc(-c2nc3sccn3c2/C(N)=N/C(=N)N)cc1OC`, the GI50 is 21.3 µM and the TGI is 44.5 µM.

For `CC1=C(C(=O)Nc2ccc(Cl)c(Cl)c2)C(c2cccc(Oc3ccccc3)c2)NC(=S)N1` (stereo not drawn), the GI50 was 7.89 µM and the TGI was found to be 15 µM.

`O=C(N/C(=C\c1ccc(/C=C(\NC(=O)c2ccccc2)c2nc3cc([N+](=O)[O-])ccc3[nH]2)cc1)c1nc2cc([N+](=O)[O-])ccc2[nH]1)c1ccccc1` came in with a TGI of over 100 µM.

Compound `COc1cc2c(cc1OC)-c1c3cc(O)ccc3nn[n+]1CC2` displayed a TGI of over 100 µM.

`Cc1ccc(NC2=C(Cl)C(=O)N(Cc3ccccc3)C2=O)cc1O`: the GI50 was 15.5 µM and the TGI was 37.5 µM.

Compound `CCN(CCO)CC1CCCC2CCCCC21` (stereo not drawn) came in with a TGI of over 100 µM.

Turning to `CCCCOC(=O)C1OC(O[C@H]2CCC3(C)C(CCC4(C)C3CC=C3C5CC(C)(C)CCC5(C(=O)O)CC[C@]34C)C2(C)C)C(OC2OC(CO)C(O)C(O)C2O)C(OC2OC(CO)C(O)C(O)C2O)C1O` (stereo partly drawn), the GI50 was 33.1 µM and the TGI is over 100 µM.

Take `COc1cc(Cc2cnc(/N=C3\C(=O)N(CN4CCN(c5c(F)cc6c(=O)c(C(=O)O)cn(C7CC7)c6c5OC)CC4C)c4ccc(F)cc43)nc2N)cc(OC)c1OC` (stereo not drawn): the GI50 was 18.3 µM and the TGI is 35.2 µM.

In turn, `N#CC1C(C#N)C2(c3ccccc3)C(c3ccccc3)=NN(c3ccccc3)CC12` (stereo not drawn) yielded a TGI of over 100 µM.
